Source: US8563587B2, “Methods and compositions for treating fish diseases” (HaloSource, Inc., priority 2006, dated 2013)

How the values were obtained:
[1] = test system: Black Skirt Tetras (Gymnocorymbus ternetzi); assay: Fish mortality, MC in ethanol vs MC tablets (Comparative Example 2); format: in vivo; settings: 300 mg MC in 95% EtOH/water added at once, 7.1 ppm TAC
Procedure: (§1) A study was performed in which GlowLite (Hemigrammus erthrozonus) and Black Skirt Tetras (Gymnocorymbus ternetzi) were subjected to treatment with MC dissolved in 95% Ethanol (then diluted with water) and another set of the same fish subjected to MC tablets as described in EXAMPLE 1 dosed to equal levels of MC.
(§2) Part 1: Four 5-gallon hexagonal fish tanks were set up as follows: • (a) Hex-1: 5 Black Skirt Tetras (Control Tank—0 ppm TAC) • (b) Hex-2: 5 Black Skirt Tetras (Experimental Tank) • (c) Hex-3: 11 Glow Lite Tetras (Control Tank—0 ppm TAC) • (d) Hex-4: 11 Glow Lite Tetras (Experimental Tank)
(§3) The fish were allowed to acclimate with their surroundings for a period of three days. For the experimental tanks, 300 mg of MC dissolved in 30 g 95% EtOH followed by dilution to 100 mLs total volume with DI water was added. For the control tanks 30 g 95% EtOH diluted to 100 mLs total volume with DI water was added. TAC was measured in the experimental tanks 10 minutes after the addition of the MC solution: HEX-2=7.1 ppm TAC; HEX-4=6.0 ppm TAC. Within three hours, all 11 of the Glow Lite Tetras were dead and 3 out of 5 Black Skirt Tetras were dead.
(§4) Part 2: Three 5-gallon hexagonal fish tanks were set up as follows: • (a) Hex-1: 5 Black Skirt Tetras • (b) Hex-3: 5 Glow Lite Tetras • (c) Hex-4: 5 Glow Lite Tetras
(§5) The fish were allowed to acclimate with their surroundings for a period of 4 hours. All tanks began with 0 ppm TAC. Tablets of MC made from 0.11 g MC pressed with 0.89 g MgSO4, with a ⅝″-diameter tablet as described in EXAMPLE 1 were added to each tank as follows: • (a) Hex-1: 5 Black Skirt Tetras—3 tablets on day 1, 4 tablets on day 2 • (b) Hex-3: 5 Glow Lite Tetras—3 tablets on day 1, 3 tablets on day 2 • (c) Hex-4: 5 Glow Lite Tetras—2 tablets on day 1, 2 tablets on day 2
(§6) Tanks Hex-1 and 2 measured above 6 ppm TAC each day, but took approximately three hours to reach a TAC above 6 ppm. HEX 4 rose to a TAC level of 4.1 ppm TAC within the first day. No fish died throughout the 48-hour experiment.

[2] = test system: GlowLite (Hemigrammus erthrozonus); assay: as above; format: in vivo; settings: of 11 Glow Lite Tetras, within three hours; 300 mg MC in 95% EtOH/water added at once, 6.0 ppm TAC
Procedure: as §1, §2, §3, §4, §5, §6

[3] = TAC measured in the fish tanks of Comparative Example 2; format: physicochemical; settings: 10 minutes after addition of 300 mg MC in 95% EtOH diluted to 100 mL
Procedure: as §3, §5, §6

## CC1(C)NC(=O)C(C)(C)N1Cl [MC, 1-Chloro-2,2,5,5-tetramethylimidazolidin-4-one]
[1]; within 24 hours
  dead fish: the remainder of the Black Skirt Tetras were dead
[1]; within three hours
  dead fish: 3 out of 5
[2]
  dead fish: 11
[3]; HEX-2 (Black Skirt Tetras)
  TAC in experimental tank: 7.1 ppm TAC
[3]; HEX-4 (Glow Lite Tetras)
  TAC in experimental tank: 6.0 ppm TAC
